This note sets out measurements from ChEMBL document CHEMBL2380304, “Synthesis of 2-methoxybenzoylhydrazone and evaluation of their antileishmanial activity” (Bioorg Med Chem Lett, 2013).

Broadly, the pIC50 is the negative decadic logarithm of the IC50, by convention in mol/L. High values mean a low IC50, low ones a high IC50.

In the assay the test system is Leishmania major. Put plainly: Antileishmanial activity against promastigotes of Leishmania major after 72 hrs by Neubauer counting chamber-based microscopic analysis. Format: functional, organism-based.

pIC50: −log10 of the molar value.

As for `COc1ccccc1C(=O)N/N=C/c1ccccn1`, the pIC50 was 4.22.

The molecule `COc1ccccc1C(=O)N/N=C/c1ccncc1` gave a pIC50 of 4.12.

Take `COC(=O)c1ccc(/C=N/NC(=O)c2ccccc2OC)cc1`: the negative logarithm of the IC50 (pIC50) is 4.81. This pIC50 lies 0.69 log units higher than the previous one.

The molecule `COc1ccccc1C(=O)N/N=C/c1ccc(Br)c(F)c1` had a negative-log IC50 (pIC50) of 4.11. This pIC50 is 0.70 log units lower than that of the molecule before.

Take `COc1ccccc1C(=O)N/N=C/c1cc(O)c(O)c(O)c1`: the negative logarithm of the IC50 (pIC50) is 4.50.

In turn, `COc1ccccc1C(=O)N/N=C/c1ccc(O)c(O)c1` gave a pIC50 of 5.48.

Regarding `COc1ccc(/C=N/NC(=O)c2ccccc2OC)cc1Br`, the negative-log IC50 (pIC50) was 5.12.

With `COc1ccc(/C=N/NC(=O)c2ccccc2OC)cc1OC`, the pIC50 was 4.88.

For the molecule `COc1ccc(/C=N/NC(=O)c2ccccc2OC)cc1`, the negative-log IC50 (pIC50) is 4.40.

On to `COc1ccccc1C(=O)N/N=C/c1cccnc1`, for which the negative logarithm of the IC50 (pIC50) was 5.71.

In the case of `COc1ccccc1C(=O)N/N=C/c1cccs1`, the pIC50 was 5.60.

Regarding `COc1ccccc1C(=O)N/N=C/c1ccc([N+](=O)[O-])cc1`, the pIC50 was 4.50.

On to `COc1ccccc1C(=O)N/N=C/c1ccc(Cl)cc1`, for which the negative logarithm of the IC50 (pIC50) is 4.16.

`COc1ccccc1C(=O)N/N=C/c1cccc(O)c1O` had a negative logarithm of the IC50 (pIC50) of 4.17.

Molecule `COc1ccccc1C(=O)N/N=C/c1cc(O)ccc1O` gave a pIC50 of 4.46.

Take `COc1ccccc1C(=O)N/N=C/c1ccc(O)cc1O`: the negative logarithm of the IC50 (pIC50) was 4.05.

`COc1ccccc1C(=O)N/N=C/c1ccc(O)cc1`: the pIC50 was 4.24.

Take `COc1ccc(/C=N/NC(=O)c2ccccc2OC)c(O)c1`: the pIC50 was 4.88.

`COc1ccc(/C=N/NC(=O)c2ccccc2OC)cc1O`: the pIC50 was 4.34.

`COc1ccccc1C(=O)N/N=C/c1ccc(OC)c(O)c1I` showed a negative logarithm of the IC50 (pIC50) of 4.20.

In turn, `COc1cc(/C=N/NC(=O)c2ccccc2OC)cc(OC)c1` had a pIC50 of 4.27.

As for `N=C(N)c1ccc(OCCCCCOc2ccc(C(=N)N)cc2)cc1` [PENTAMIDINE], the pIC50 is 5.29.
